Laboratory results as given in article PMC7112044 (Bioorganic Chemistry, 2008).
Like-named read-outs stand apart in the source and are kept apart here.

How the values were obtained:
SARS 3CL^pro = SARS 3CL^pro (Severe acute respiratory syndrome coronavirus, UniProt P0C6X7); experiment: biochemical; assay type: biochemical, SARS-CoV
3CL^pro = 3CL^pro (Severe acute respiratory syndrome coronavirus, UniProt P0C6X7); assay type: binding, SARS-CoV
[1] = pH 7, read-out: Inhibition (100 μM)

2-(5-Bromopyridin-3-yl)-2,2-difluoro-1-(furan-2- yl)ethanone [Compound 12c]
Inhibition (100 μM) (SARS 3CL^pro; pH 7): 21%

O=C(c1cccs1)C(F)c1cccnc1 (centres unmarked) [Compound 6, 2-Fluoro-2-(pyridin-3-yl)-1-(thiophen-2-yl)ethanone]
change of inhibition after 2 h preincubation with 3CL^pro (SARS 3CL^pro): no improved inhibition
inhibition at 100 µM (SARS 3CL^pro; [1]): 10%

O=C(c1cccs1)C(F)(F)c1cccnc1 [Compound 7, 2,2-difluoro-2-(pyridin-3-yl)-1-(thiophen-2-yl)ethanone]
change of inhibition after 2 h preincubation with 3CL^pro (SARS 3CL^pro): no improved inhibition
potency of inhibition relative to pyridinyl ester 1 (SARS 3CL^pro): 2- to 3 fold
inhibition at 100 µM (SARS 3CL^pro; [1]): 38%

O=C(Cc1cncc(Cl)c1)c1ccco1 [Compound 11a, 2-(5-Chloropyridin-3-yl)-1-(furan-2-yl)ethanone]
inhibition at 100 µM (SARS 3CL^pro; read-out: Inhibition (100 μM)): < 10%

O=C(Cc1cccc(Cl)c1)c1ccco1 [Compound 11b, 2-(3-Chlorophenyl)-1-(furan-2-yl)ethanone]
inhibition at 100 µM (SARS 3CL^pro; read-out: Inhibition (100 μM)): < 10%

O=C(Cc1cncc(Br)c1)c1ccco1 [Compound 11c, 2-(5-Bromopyridin-3-yl)-1-(furan-2-yl)ethanone]
inhibition at 100 µM (SARS 3CL^pro; read-out: Inhibition (100 μM)): < 10%

O=C(Cc1cncc(Br)c1)c1ccc(-c2ccc(Cl)cc2)o1 [Compound 11d, 2-(5-Bromopyridin-3-yl)-1-(5-(4-chlorophenyl)furan-2-yl)ethanone]
change of inhibitory activity after 2 h preincubation with 3CL^pro (SARS 3CL^pro): no improved inhibitory activity
mass change in the major mass peak of 3CL^pro (3CL^pro): no mass change

O=C(c1ccco1)C(F)c1cncc(Cl)c1 (centres unmarked) [Compound 12a, 2-(5-Chloropyridin-3-yl)-2-fluoro-1-(furan-2-yl)ethanone]
inhibition at 100 µM (SARS 3CL^pro; [1]): 14%

O=C(c1ccco1)C(F)c1cccc(Cl)c1 (centres unmarked) [Compound 12b, 2-(3-Chlorophenyl)-2-fluoro-1-(furan-2-yl)ethanone]
inhibition at 100 µM (SARS 3CL^pro; [1]): 15%

O=C(c1ccc(-c2ccc(Cl)cc2)o1)C(F)c1cncc(Br)c1 (centres unmarked) [Compound 12d, 2-(5-Bromopyridin-3-yl)-1-(5-(4-chlorophenyl)furan-2-yl)-2-fluoroethanone]
change of inhibitory activity after 2 h preincubation with 3CL^pro (SARS 3CL^pro): no improved inhibitory activity
mass change in the major mass peak of 3CL^pro (3CL^pro): no mass change

O=C(c1ccco1)C(F)(F)c1cncc(Cl)c1 [Compound 13a, 2-(5-Chloropyridin-3-yl)-2,2-difluoro-1-(furan-2-yl)ethanone]
inhibition at 100 µM (SARS 3CL^pro; [1]): 27%

O=C(c1ccco1)C(F)(F)c1cccc(Cl)c1 [Compound 13b, 2-(3-Chlorophenyl)-2,2-difluoro-1-(furan-2-yl)ethanone]
inhibition at 100 µM (SARS 3CL^pro; [1]): 13%

O=C(c1ccc(-c2ccc(Cl)cc2)o1)C(F)(F)c1cncc(Br)c1 [Compound 13d, 2-(5-Bromopyridin-3-yl)-1-(5-(4-chlorophenyl)furan-2-yl)-2,2-difluoroethanone]
change of inhibitory activity after 2 h preincubation with 3CL^pro (SARS 3CL^pro): no improved inhibitory activity
mass change in the major mass peak of 3CL^pro (3CL^pro): no mass change

O=C(Cc1cncc(Br)c1)c1cc(-c2ccc(Cl)cc2)on1 [Compound 28, 2-(5-Bromopyridin-3-yl)-1-(5-(4-chlorophenyl)isoxazol-3-yl)ethanone]
inhibition at 100 µM (SARS 3CL^pro; [1]): 35%
